This note sets out measurements from the METLIN SMRT retention time set (Domingo-Almenara et al. 2019).

Each structure is given as a SMILES string.

A short description of the series: gradient 5% acetonitrile 3 min, to 50% in 2 min, to 85% in 15 min, held 3 min, 100 µL/min. To be noted: column: Zorbax Extend-C18 2.1 x 50 mm; eluents: water / acetonitrile, 0.1% formic acid. Put shortly:
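Values are retention times taken from adduct peaks that software picked and an analyst inspected. The pure standards were run as mixtures of ~100 molecules on HPLC linked to a quadrupole time-of-flight mass spectrometer, in positive and negative ionization mode. A Zorbax Extend-C18 column (2.1 × 50 mm, 1.8 μm) was used at 100 μL/min with water and acetonitrile, each including 0.1% formic acid.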
As to `Cc1cccc2nnc(N3CCN(C(=O)c4ccc(F)c(F)c4)CC3)n12`, the RP-LC retention time was 652 s. As for `O=C1NCCc2c(OCC(=O)N3N=C(c4cccs4)CC3c3ccc(F)cc3)cccc21` (stereo not drawn), the figure is 787 s. As for `CC(C)CC(=O)N1CCc2c([nH]c3ccccc23)C12C(=O)N(C)c1ccccc12` (stereo not drawn), the figure is 951 s; as for `CCC(=O)N1CCc2cc(-c3ccc(C(=O)N4CCN(c5ccccn5)CC4)cc3)ccc21`, 653 s.

Compound `Cc1ccc(Cl)cc1NC(=O)Cn1nc(N2CCOCC2)c2ccccc2c1=O` returned an RP-LC retention time of 856 s. With `O=C(CSc1ncnc2c1cnn2-c1ccc(Cl)cc1)Nc1ccc(F)cc1F` the figure was 750 s; with `Cn1c(=O)c2cc(C(=O)N3CCN(c4ccc(Cl)cc4)CC3)sc2n(C)c1=O`, 862 s. Compound `CCOc1ccc2nc(C(=O)N3CCN(c4ccc(Cl)cc4)CC3)cn2n1` yielded an RP-LC retention time of 1000 s. `Cc1ccc(CN2C(=O)NC3(CCN(C(=O)c4cccn4C)CC3)C2=O)cc1` came in with an RP-LC retention time of 787 s. `COc1ccccc1N1CCN(C(=O)Cn2nc(C(=O)N3CCOCC3)c3ccccc32)CC1`: the RP-LC retention time was 718 s. As for `O=C(Nc1c(C(=O)N2CCN(c3ccccn3)CC2)oc2ccccc12)c1cccc([N+](=O)[O-])c1`, the figure is 744 s.

As to `Cc1ccc(-c2nc3nc(C)cc(NC(C)C)n3n2)cc1`, the RP-LC retention time worked out at 782 s. As for `CC(=O)N1CCc2cc(N3CC(C(=O)N4CCC5(CC4)OCCO5)CC3=O)ccc21` (stereo not drawn), the figure is 620 s.

`CCCn1c(C)cnc1C1CN(S(=O)(=O)c2cccc3cccnc23)C1` returned an RP-LC retention time of 624 s.

For the compound `COc1ccc(Cl)cc1S(=O)(=O)NC1CCc2nn(C)c(=O)n2CC1` (stereo not drawn), the RP-LC retention time is 677 s. `CO[C@@H]1COCC[C@@H]1N[C@@H]1CC[C@@](C(=O)N2CCc3ncc(C(F)(F)F)cc3C2)(C(C)C)C1` returned an RP-LC retention time of 709 s. `CC1=C(c2ccc(C(C)C)cc2)S(=O)(=O)N=C1N1CCC(C(=O)NCCN2CCCC2)CC1` came in with an RP-LC retention time of 693 s.

The compound `CC(C)CNC(=O)CCc1nc2ccccc2n(CC(=O)Nc2ccc(C(C)C)cc2)c1=O` gave an RP-LC retention time of 949 s.

With `O=C(Cn1c(=O)c2cc(C3CC3)nn2c2ncccc21)N1CCc2ccccc21`, the RP-LC retention time worked out at 808 s. As for `CN(C)c1cccc(C(=O)Nc2cc(-c3ccccn3)no2)c1`, the figure is 776 s. With `Cc1ccc(NC(=O)c2ccc(CN3CCN(C)CC3)cc2)cc1Nc1nc(-c2cccnc2)cs1` the figure was 618 s. With `Cc1ccc(F)cc1S(=O)(=O)N1CC(F)(F)C[C@H]1CN1CCc2ccccc2C1`, the RP-LC retention time amounted to 795 s.

Turning to `Cc1cc(C)cc(-n2ccn3c(CCCC(=O)N4CCN(c5ccccn5)CC4)nnc3c2=O)c1`, the RP-LC retention time was determined as 616 s. `O=C(Cc1csc(-n2cccc2)n1)NCCc1c[nH]c2ccccc12`: the RP-LC retention time is 840 s. `Cc1nn(-c2ccccc2)c(C)c1S(=O)(=O)N1CCC(C(=O)Nc2ccc(F)c(Cl)c2)CC1` registered an RP-LC retention time of 1050 s. Turning to `CC(C)c1ccc(Nc2c(-c3ccc(N4CCOCC4)cc3)nc3ncccn23)cc1`, the RP-LC retention time is 806 s. With `Cc1ccc(N2C(=O)CN(S(C)(=O)=O)CC2(C)C(=O)NCc2ccc(F)cc2)c(C)c1` (stereo not drawn) the figure was 834 s; with `COc1cc(NC(=O)CC2=C3CCCCC3NC2=O)cc(OC)c1` (stereo not drawn), 706 s; with `CCN1C(=O)c2cccnc2Sc2cc(NC(=O)c3ccccc3F)ccc21`, 834 s. With `CCc1ccccc1NC(=O)Cn1c(=O)nc(N2CCC(C)CC2)c2ccccc21` the figure was 898 s.

Regarding `Cc1ccccc1NC(=O)Cn1nc2n(c1=O)CCCC2`, the RP-LC retention time was 630 s. On to `Fc1ccc(Cl)cc1-c1nnc(-c2ccc(-n3ccnc3)nc2)o1`, for which the RP-LC retention time was found to be 681 s. As for `COc1ccc(C(=O)NCCC2=CCCCC2)cc1`, the figure is 846 s; as for `CCCc1ccc(S(=O)(=O)N2CCCC2c2nc(-c3ccc(Cl)cc3)no2)cc1` (stereo not drawn), 1380 s. Turning to `CN(C)C(=O)[C@@]12CCCC[C@H]1N(CCc1ccccc1)C(=O)CC2`, the RP-LC retention time worked out at 725 s.

In turn, `Cc1cccc(-c2nc(Cn3nnc(-c4nc(-c5ccc(Cl)cc5)no4)c3C)c(C)o2)c1` displayed an RP-LC retention time of 1320 s. As for `Cc1cccc(-c2noc(-c3sccc3NC(=O)c3ccc4nc[nH]c4c3)n2)c1`, the figure is 957 s; as for `CN(C)S(=O)(=O)c1cccc(-c2nnc(-c3ccc(Cl)cc3)o2)c1`, 1000 s; as for `CC(C)N1C(=O)C2(CCCCC2)C1C(=O)N1CCCCC1` (stereo not drawn), 722 s. With `CCCC(=O)Nc1cnc(-c2ccc(Cl)cc2)nc1` the figure was 958 s. Turning to `O=C(NC1CCN(c2cc(-c3ccc(F)cc3)[nH]n2)C1)c1ccc(F)c(F)c1` (stereo not drawn), the RP-LC retention time worked out at 807 s.

In turn, `Cc1ccc(-c2nc(C)c(C(=O)NC3CC3)s2)cc1` displayed an RP-LC retention time of 888 s. As for `Cc1noc(C)c1-c1ccc(S(=O)(=O)NCCC(C)C)cc1`, the figure is 954 s. As for `Cc1ccc(-n2ncc3c(NCc4ccc5c(c4)OCO5)ncnc32)cc1`, the RP-LC retention time stood at 939 s. Compound `Cc1ccc(CN2CCN(CC(=O)N3CCN(c4cccc(Cl)c4)CC3)C(=O)C2=O)cc1` gave an RP-LC retention time of 866 s. As for `Cc1cccc(NC(=O)NC2CCN(c3ccc(C)c(C)c3)C2=O)c1` (stereo not drawn), the figure is 923 s. Regarding `O=C(Nc1cc(C(F)(F)F)cc(C(F)(F)F)c1)Nc1c(Br)cc(Br)cc1-c1nn[nH]n1`, the RP-LC retention time was 1130 s. For `CN(C)CCNC(=O)c1nc2ccccn2c1-c1ccc(Cl)cc1`, the RP-LC retention time amounted to 626 s. Turning to `COc1ccc(N2CCN(c3nc(C(=O)NCCN4CCCCC4)cs3)CC2)cc1`, the RP-LC retention time is 642 s. `O=C1c2cccc3c2[C@@H](CCC3)CN1[C@@H]1CN2CCC1CC2`: the RP-LC retention time worked out at 664 s.

`O=C(NCc1ccccc1F)c1cccc(-c2ccc(N3CCCC3)nc2)c1` came in with an RP-LC retention time of 675 s. For the compound `Cc1ccccc1Oc1nccn2c(=O)n(CC(=O)Nc3ccccc3F)nc12`, the RP-LC retention time came to 853 s. As for `COc1ccccc1NC(=O)c1cc(C(C)C)n2nccc2n1`, the figure is 1180 s; as for `O=C(CSc1nnc(NC(=O)C2CCCCC2)s1)Nc1ccc2c(c1)OCO2`, 802 s. With `CCSc1nnc(-c2nn(C)c3c2CN(C(=O)c2cccc(F)c2)CC3)n1C` the figure was 744 s.

As for `Cc1nc(C)c(C(=O)N2CCCC2c2nc(-c3ccc(F)cc3F)no2)s1` (stereo not drawn), the RP-LC retention time stood at 837 s. Compound `NC(=O)C1Cc2ccccc2N1C(=O)c1ccc([N+](=O)[O-])o1` (stereo not drawn) registered an RP-LC retention time of 633 s. `COc1ccc(-c2c(NC(=O)c3ccco3)n(-c3ccccc3)nc(C)c2=O)cc1` came in with an RP-LC retention time of 674 s. With `NC(=O)c1ccc(NC(=O)c2sc3ncccc3c2-n2cccc2)cc1` the figure was 728 s; with `CCOC(=O)c1c(S(=O)(=O)N2CCC(C(=O)Nc3cc(C)ccc3OC)CC2)c(C)n(C)c1C`, 936 s; with `N#Cc1ccccc1NC(=O)NCC1CN(c2ccc3c(c2)OCO3)C(=O)O1` (stereo not drawn), 690 s. With `CCCCNC(=O)C1Cc2cc(S(=O)(=O)N3CCCCC3)ccc2N1C(C)=O` (stereo not drawn) the figure was 806 s. Take `O=C(NCCc1ccccc1)c1nc(Cn2c(=O)oc3ccc(Cl)cc32)no1`: the RP-LC retention time came to 966 s. Compound `CCc1ccc(-c2ccc(-n3nc(C)c(S(=O)(=O)N4CCC(C)CC4)c3C)nn2)cc1` gave an RP-LC retention time of 1350 s. In turn, `COCCCNC(=O)C1c2ccccc2C(=O)N(C2CCCC2)C1c1cccs1` (stereo not drawn) registered an RP-LC retention time of 836 s. `Cc1ccc(-c2cn3c(CC(=O)Nc4ccc(F)cc4Cl)csc3n2)cc1C` came in with an RP-LC retention time of 911 s.

Compound `Cc1ccc(-c2noc(-c3ccc(N4CCN(c5cc(C)ccc5C)CC4)nc3)n2)cc1` showed an RP-LC retention time of 749 s. On to `Cc1ccc(Nc2c(-c3nc(C)no3)cnc3nc(C)ccc23)cc1`, for which the RP-LC retention time was 750 s. With `CCCn1c(=O)sc2cc(S(=O)(=O)N3CCC(C(=O)NCc4ccco4)CC3)ccc21` the figure was 848 s; with `CCS(=O)(=O)c1ccc2c(c1)N(Cc1nc(-c3ccc(Br)cc3)no1)C(=O)CO2`, 988 s; with `COc1cccc(C(=O)NC(c2ccccc2)c2nnc(N3CCCC3)o2)c1` (stereo not drawn), 788 s. As for `CCCNC(=O)C1CCCN(c2ccc(SCC(=O)Nc3cc(F)ccc3F)nn2)C1` (stereo not drawn), the figure is 698 s; as for `O=C(CC1CCN(C(=O)Nc2ccccc2)CC1)N1CCN(c2ccccn2)CC1`, 603 s. As for `Cc1ccc(NC(=O)N2CCC3(C2)C(=O)N(C)c2ccccc23)cc1` (stereo not drawn), the figure is 814 s; as for `CCCCNC(=O)C1CCN(C(=O)CCc2c(C)[nH]c(C(=O)OCC)c2C)CC1`, 748 s.

Compound `c1cn(-c2cc(N3CCCC3)ncn2)cn1` registered an RP-LC retention time of 556 s. For `Cc1ccc(CNC(=O)c2ccc3c(c2)CCN3C(=O)C2CC2)cc1`, the RP-LC retention time was determined as 824 s. Compound `Fc1ccc(-c2nc(-c3cn(Cc4cccc(F)c4)nn3)no2)cc1` yielded an RP-LC retention time of 1010 s.
